The structures appear in SMILES notation. Like-named read-outs stand apart in the source and are kept apart here.

The test system of one series is Plasmopara viticola. In words: Test D: grape downy mildew, spray after inoculation of grape seedlings. As to conditions: Plasmopara viticola, 168 h, read-out: Test D disease control rating. The series is classed as in vivo. The source says:
Upon removal, disease ratings were made. […] A dash (-) indicates no test results.

A further series deals with Phytophthora infestans. In words: whole plant or invertebrate. The series is classed as in vivo. The note with it: Phytophthora infestans, in Solanum lycopersicum, topical, 144 h, read-out: Test F disease control rating.
Another series deals with fusarium graminearium. The series can be described thus: Test I: wheat head scab, preventive spray on wheat seedlings. The note with it: Fusarium, in Triticum aestivum, topical, 192 h.
Another series concerns Pythium aphanidermatum. The series can be described thus: Test A: bluegrass pythium blight, preventive spray on bluegrass seedlings. The note with it: Pythium aphanidermatum, 120 h, read-out: Test A disease control rating.
For the next series, the system named is Septoria tritici. In words: Test J: wheat leaf blotch, preventive spray on wheat seedlings. The series is classed as in vivo. The note with it: Zymoseptoria tritici, 528 h, read-out: Test J disease control rating. The source says:
A dash (-) indicates no test results.

The next series has as its system Rhizoctonia oryzae. In words: Test G: turf brown patch, preventive spray on creeping bent grass seedlings. As to conditions: Waitea circinata, in Agrostis stolonifera, topical, 144 h.
In series [1] the test system is Puccinia recondita f. sp. tritici. The series can be described thus: Test K: wheat leaf rust, preventive spray on wheat seedlings. The note with it: Puccinia recondita, in Triticum aestivum, 192 h, read-out: Test K disease control rating.
A further series relates to Botrytis cinerea. In words: Test E: tomato botrytis, preventive spray on tomato seedlings. The note with it: Botrytis cinerea, in Solanum lycopersicum, topical, 72 h, read-out: Test E disease control rating.
Series [2] relates to Erysiphe graminis f. sp. tritici. The series can be described thus: Test L: wheat powdery mildew, preventive spray on wheat seedlings. The note with it: Blumeria graminis, in Triticum aestivum, 168 h.
Series [3] has as its system Colletotrichum orbiculare. In words: Test B: cucumber Colletotrichum anthracnose, preventive spray on cucumber seedlings. The note with it: Colletotrichum orbiculare, in Cucumis sativus, 144 h.
The next series relates to Sclerotinia sclerotiorum. In words: Test C: cucumber white mold, preventive spray on cucumber seedlings. As to conditions: Sclerotinia sclerotiorum, in Cucumis sativus, 168 h.
For a further series, the system named is Septoria nodorum. In words: Test H: wheat glum blotch, preventive spray on wheat seedlings. The note with it: Parastagonospora nodorum, in Triticum aestivum, topical, 168 h.
Where [4] appears, read: 40 ppm (marked *), 100 = 100% disease control, 0 = no control.
The mark [5] stands for this setting: read-out: Test G disease control rating, 40 ppm (*).
[6] abbreviates: read-out: Test L disease control rating, 40 ppm (*).
[7] abbreviates: read-out: Test B disease control rating, 40 ppm (*).
[8] abbreviates: read-out: Test H disease control rating, 40 ppm (*).

Method for Rhizoctonia oryzae: (the causal agent of turf brown patch) and incubated in a saturated atmosphere at 27° C. for 24 h, and then moved to a growth chamber at 27° C. for 5 days, after which disease ratings were made.
Method for Septoria nodorum: (the causal agent of wheat glum blotch) and incubated in a saturated atmosphere at 20° C. for 48 h, and then moved to a growth chamber at 22° C. for 5 days, after which disease ratings were made.
Method for fusarium graminearium: (the causal agent of wheat head scab) and incubated in a saturated atmosphere at 20° C. for 72 h, and then moved to a growth chamber at 22° C. for 5 days, after which disease ratings were made.

Compound `COc1ccc(Cn2c(-c3c(F)cccc3F)c(Cl)nc(-n3cccn3)c2=O)cc1` [Compound 271, 5-Chloro-6-(2,6-difluorophenyl)-1-[(4-methoxyphenyl)methyl]-3-(1H-pyrazol-1-yl)-2(1H)-pyrazinone] gave a melting point of 235 to 236 °C. The pest or weed control at 40 ppm with Plasmopara viticola (setting [4]) came out at 0%. For the same compound, the pest or weed control at 40 ppm with Phytophthora infestans was found to be 0%. For the same compound, in the series on fusarium graminearium (read-out: Test I disease control rating, 40 ppm (marked *), 100 = 100% disease control, 0 = no control), the pest or weed control at 40 ppm was found to be 0%. For the same compound, the pest or weed control at 40 ppm in the series with Pythium aphanidermatum turned out to be 0%. In addition, in the series on Septoria tritici (setting [4]), the pest or weed control at 40 ppm was found to be 0%. Further, the pest or weed control at 40 ppm in the series on Rhizoctonia oryzae (read-out: Test G disease control rating, 40 ppm (marked *), 100 = 100% disease control, 0 = no control) was 0%. Also, in [1], the pest or weed control at 40 ppm amounted to 32%. Further, the pest or weed control at 40 ppm in the series with Botrytis cinerea came out at 0%. For the same compound, the pest or weed control at 40 ppm in series [2] (read-out: Test L disease control rating, 40 ppm (marked *), 100 = 100% disease control, 0 = no control) was 0%. Moreover, the pest or weed control at 40 ppm in series [3] (read-out: Test B disease control rating, 40 ppm (marked *), 100 = 100% disease control, 0 = no control) was 0%. Besides, in the series on Sclerotinia sclerotiorum (read-out: Test C disease control rating, 40 ppm (marked *), 100 = 100% disease control, 0 = no control), the pest or weed control at 40 ppm turned out to be 0%. In addition, the pest or weed control at 40 ppm with Septoria nodorum (read-out: Test H disease control rating, 40 ppm (marked *), 100 = 100% disease control, 0 = no control) is 0%.
On to `Cc1nc(-n2cccn2)c(=O)n(CC(C)C)c1-c1c(F)cccc1F` [Compound 149, 5-Methyl-6-(2,6-difluorophenyl)-1-(2-methylpropyl)-3-(1H-pyrazol-1-yl)-2(1H)-pyrazinone], for which the melting point was in the range of 105 to 106 °C. In the series with Plasmopara viticola (200 ppm), the pest or weed control at 200 ppm is 0%. Further, in the series with Phytophthora infestans, the pest or weed control at 200 ppm was determined as 0%. Moreover, the pest or weed control at 200 ppm in the series with fusarium graminearium (read-out: Test I disease control rating, 200 ppm) worked out at 0%. Moreover, in the series with Pythium aphanidermatum, the pest or weed control at 200 ppm is 0%. Further, the pest or weed control at 40 ppm in the series with Septoria tritici (40 ppm (*)) came to 100%. The pest or weed control at 40 ppm in the series with Rhizoctonia oryzae (setting [5]) stood at 99%. The pest or weed control at 40 ppm in [1] worked out at 100%. Besides, in the series on Botrytis cinerea, the pest or weed control at 40 ppm came to 100%. For the same compound, the pest or weed control at 40 ppm in [2] (setting [6]) came out at 100%. For the same compound, the pest or weed control at 40 ppm in series [3] (setting [7]) came to 0%. In addition, the pest or weed control at 40 ppm with Septoria nodorum (setting [8]) is 98%.
Consider `CC[C@H](C)Cn1c(-c2c(F)cc(F)cc2F)c(Cl)nc(-n2cccn2)c1=O` [Compound 155, 5-Chloro-1-[(2S)-2-methylbutyl)-3-(1H-pyrazol-1-yl)-6-(2,4,6-trifluorophenyl)-2(1H)-pyrazinone], for which the melting point is 112 to 113 °C. The pest or weed control at 40 ppm in the series on Plasmopara viticola (40 ppm (*)) is 47%. For the same compound, the pest or weed control at 40 ppm with Phytophthora infestans was 0%. Besides, in the series with fusarium graminearium (read-out: Test I disease control rating, 40 ppm (*)), the pest or weed control at 40 ppm was 0%. In addition, the pest or weed control at 40 ppm in the series with Pythium aphanidermatum was found to be 0%. In the series on Septoria tritici (40 ppm (*)), the pest or weed control at 40 ppm worked out at 100%. The pest or weed control at 40 ppm in the series on Rhizoctonia oryzae (setting [5]) was 100%. Further, the pest or weed control at 40 ppm in series [1] is 100%. In addition, the pest or weed control at 40 ppm in the series with Botrytis cinerea was 100%. Further, the pest or weed control at 40 ppm in [2] (setting [6]) is 100%. For the same compound, the pest or weed control at 40 ppm in series [3] (setting [7]) came out at 100%. In addition, the pest or weed control at 40 ppm with Sclerotinia sclerotiorum (read-out: Test C disease control rating, 40 ppm (*)) turned out to be 99%. Further, in the series on Septoria nodorum (setting [8]), the pest or weed control at 40 ppm turned out to be 100%.

What is called melting point is the temperature of the solid-liquid transition.

These data come from patent US20080194585A1, “Fungicidal Pyrazine Derivatives” (priority 2005, published 2008).
